Measurements as given in PMC11915372, “Identification of a Series Containing a Pentafluorophenyl Moiety That Targets Pks13 to Inhibit Growth of Mycobacterium tuberculosis” (ACS Infectious Diseases, 2025).
pIC50: −log10 of the molar value. Like-named read-outs stand apart in the source and are kept apart here.

Assays:
physchem = assay type: physicochemical
M. tuberculosis (H37Rv) = test: microbe, parasite or virus in culture; assay type: cell-based, Mycobacterium tuberculosis
[1] = system: MmpL3, DprE1, InhA, FadD32, Kas A hypomorph strains; assay type: cell-based, Mycobacterium tuberculosis
HepG2 cells = test: HepG2 cytotoxicity
From the text: Assays to establish HepG2 cytotoxicity, in vitro microsomal/hepatocyte metabolic stability, aqueous kinetic solubility, and in vivo pharmacokinetic profiles were all performed as previously described.[15],[35]−[37]

[2] = assay type: in vitro ADME, mouse; settings: for Mouse Heps Cl: intrinsic clearance (Cli), mouse hepatocytes, Tables 1-4; for Hepatocyte Cli: supplement data table
Pks13 hypomorph strain = assay type: cell-based, Mycobacterium tuberculosis
[3] = system: iniBAC promoter (PiniB-LUX strain); assay type: cell-based, Mycobacterium tuberculosis
[4] = assay type: in vitro ADME, human
Method: Non-Chemistry supplementary methods
Test compound (10 µM) was incubated with 0.5 mg/mL Human Liver Microsomes (Mixed Gender, Life Technologies) in 50 mM potassium phosphate buffer, pH7.4 in the presence of either NADPH (8mg/mL), glutathione or NADPH plus glutathione. Reactions are started by addition of 5 µL of 1 mM test compound (final concentration 10 µM, 1% solvent). Immediately, an aliquot (100 µL) of the incubation mixture was removed and mixed with acetonitrile (200 µL) to stop the reaction. A further 100 uL aliquot is removed at 90 minutes. After addition of 100 µL of water, the samples were centrifuged to sediment precipitated protein and the plates then sealed prior to analysis using a Xevo QTof Quadrupole Time-of-Flight Mass Spectrometer (Waters corporation, USA). Detection of metabolites is performed by analysis with MetabolynxXS and by manual data searching. Elemental composition of the parent ion and MS/MS analysis is used to determine the nature of the GSH adduct.
Incubations with Clozapine were performed to provide a positive control.
Met ID in human liver microsomes […]
Analysis was performed on a Waters Acquity H-Class UHPLC system equipped with a photodiode array detector and Waters Xevo Q-ToF high resolution mass spectrometer. […] After the UV detector the mobile phase flow was analysed using the QToF mass spectrometer. […]

[5] = assay type: in vitro ADME, mouse; settings: for Mouse micro Cl: intrinsic clearance (Cli), CD1 mouse liver microsomes, Tables 1-4; for Microsomal Cli: supplement data table
[6] = pH 7.4
[7] = kinetic solubility in water, read-out: Kin. Sol

`CN(C)c1ncnc2sc(-c3c(F)c(F)c(F)c(F)c3F)nc12.Cl` [Compound 1, CN(C)c1ncnc2sc(nc12)-c1c(c(c(c(c1F)F)F)F)F] showed a solubility kinetic (physchem; [7]) of 1.9 µM, a solubility kinetic (physchem; pH 7.4, aqueous buffer, kinetic from dmso stock, pH7.4, read-out: Kinetic Solubility pH7.4) of 1.9 µM and an MIC (M. tuberculosis (H37Rv); Mycobacterium tuberculosis, H37RV, read-out: H37Rv MIC A) of 0.12 µM. For the same molecule, the MIC (M. tuberculosis (H37Rv); Mycobacterium tuberculosis, H37RV, read-out: H37Rv MIC B) was 0.61 µM, the MIC (M. tuberculosis (H37Rv); Mycobacterium tuberculosis, H37RV, read-out: Wk2_7H9/DPPC/ casitone/ Tyloxapol MIC) was 0.124 µM and the MIC (M. tuberculosis (H37Rv); Mycobacterium tuberculosis, H37RV, read-out: Wk2_ 7H9/DPPC/ cholesterol/BSA/ Tyloxapol MIC) was 0.6 µM. The MIC (M. tuberculosis (H37Rv); Mycobacterium tuberculosis, H37RV, read-out: Wk2_7H9/glucose/ BSA/Tyloxapol MIC) was 0.5 µM, the MIC (M. tuberculosis (H37Rv); Mycobacterium tuberculosis, H37RV, read-out: Wk2_7H9/glucose/ casitone/ Tyloxapol MIC) was 0.1 µM and the “change in potency on partial depletion of InhA, FadD32 or Kas A” value [1] was “did not increase in potency”. For the same molecule, the “inhibition of MmpL3 or DprE1 suggested by hypomorph strains” value [1] was “not inhibiting MmpL3 or DprE1”, the pIC50 (HepG2 cells; Homo sapiens, HepG2, read-out: HepG2 inhibitory concentration (IC50)) was under 4.00 and the “Mouse Heps Cl” value [2] was over 50 mLmin/g. For the same molecule, the “Hepatocyte Cli” value [2] was over 50 mL/min/g, the “shift in IC50 between the ± atc conditions” value (Pks13 hypomorph strain) was about 10 fold and the PiniB-LUX luminescent signal [3] was “strong luminescent signal”. The “formation of the GSH adduct” value [4] was “clear evidence of a significant peak corresponding to the formation of the GSH adduct”, the “Mouse micro Cl” value [5] was over 50 mLmin/g and the “Microsomal Cli” value [5] was over 50 mL/min/g.

Work on “COC(=O)c1nn(c(c1NC(=O)c1c(c(c(c(c1F)F)F)F)F)C)C [Compound 20]” yielded a solubility kinetic (physchem; [7]) of 229 µM, a solubility kinetic (physchem; pH 7.4, read-out: Kinetic Solubility pH7.4) of 229 µM and an MIC (M. tuberculosis (H37Rv); read-out: H37Rv MIC A) of over 50 µM. The MIC (M. tuberculosis (H37Rv); read-out: H37Rv MIC B) was over 50 µM, the MIC (M. tuberculosis (H37Rv); read-out: Wk2_7H9/DPPC/ casitone/ Tyloxapol MIC) was over 50 µM and the MIC (M. tuberculosis (H37Rv); read-out: Wk2_ 7H9/DPPC/ cholesterol/BSA/ Tyloxapol MIC) was over 50 µM. The MIC (M. tuberculosis (H37Rv); read-out: Wk2_7H9/glucose/ BSA/Tyloxapol MIC) was over 50 µM, the MIC (M. tuberculosis (H37Rv); read-out: Wk2_7H9/glucose/ casitone/ Tyloxapol MIC) was over 50 µM and the pIC50 (HepG2 cells; read-out: HepG2 inhibitory concentration (IC50), growth of HepG2 cells) was under 4.00. The “Mouse Heps Cl” value [2] was 15.2 mLmin/g, the “Hepatocyte Cli” value [2] was 15 mL/min/g and the “CHI LogD” value [6] was 2.0. The “Mouse micro Cl” value [5] was 1.4 mLmin/g and the “Microsomal Cli” value [5] was 1.4 mL/min/g.
